Assay [1] deals with human multiple myeloma RPMI8226 cells. Briefly: Inhibitory activity against human multiple myeloma RPMI8226 cell growth (CellTiter-Glo). Conditions: Homo sapiens, RPMI-8226, 192 h, 1 μM of the test compound, cultured for 8 days; read-out: Percent inhibition of RPMI8226 cell growth (%). The assay is classed as cell-based. On the procedure:
The compound of the present invention was evaluated for its inhibitory activity against human multiple myeloma RPMI8226 cell growth by the following method.
A suspension of human multiple myeloma RPMI8226 cells (purchased from the Health Protection Agency) was inoculated at 40 μL (300 cells/well) to a 384-well plate and cultured at 37° C. for 1 day in a 5% CO2 incubator. After the culture, each test compound solution was added thereto at a test concentration of 1 μM using TECAN D300, and the cells were further cultured for 8 days. After the culture, CellTiter-Glo™ Luminescent Cell Viability Assay reagent (Promega) was added at 40 μL/well to a 384-well plate, and the amount of luminescence was measured using a luminometer. Inhibitory activity against human multiple myeloma RPMI8226 cell growth (percent inhibition (%)) of the test compound was calculated according to the following formula, which is based on the hypothesis that the amount of residual ATP reflects the number of cells. In this formula, 100% control represents the amount of luminescence from a well with only 0.1% DMSO added. Percent inhibition (%)=(1−(amount of luminescence of the test compound)÷(100% control))×100
Background: In ATP-based viability assays light output follows the ATP content of the culture.

The target in another assay is T1, CDK19 (CDC2L6/CycC) (Homo sapiens, UniProt Q9BWU1).
T1 construct: purchased Carna Biosciences
Briefly: CDK19 inhibitory activity (TR-FRET, Kinase Tracer-236 displacement). The assay is classed as binding. As to conditions: 1 μM of the test compound; read-out: Percent inhibition of CDK19 activity (%). On the procedure: (§1) The compound of the present invention was evaluated for its CDK8 inhibitory activity and CDK19 inhibitory activity by the following method. […] The primary diluted solution was dispensed in the amount of 2 μL/well to a 384-well plate, and then, a mixed solution of Eu^3+ Cryptate conjugated mouse monoclonal antibody anti-glutathione S-transferase (Cisbio) diluted 267-fold with an assay buffer and 60 nM Kinase Tracer-236 (Life technologies) was added thereto at 2 μL/well. After the addition, each kinase solution (84 ng/mL CDK8/CycC (Carna Biosciences) diluted with an assay buffer used for CDK8 inhibitory activity measurement, and 87 ng/mL CDC2L6/CycC (Carna Biosciences) diluted with an assay buffer used for CDK19 inhibitory activity measurement) was further added thereto at 2 μL/well. After the addition, the plate was left standing at room temperature for 1 hour, and then, the fluorescence intensity (excitation wavelength 320 nm, fluorescence wavelength 615 nm, 665 nm, delay time 50 μsec) was measured using an EnVision plate reader (PerkinElmer).

For a further assay, the target named is T2, CDK8/CycC (Homo sapiens, UniProt P49336).
T2 construct: purchased Carna Biosciences
Briefly: CDK8 inhibitory activity (TR-FRET, Kinase Tracer-236 displacement). The assay is classed as binding. Conditions: 1 μM of the test compound; read-out: Percent inhibition of CDK8 activity (%). The protocol:
as §1
(In general: TR-FRET usually uses a lanthanide donor and a delayed reading to cut background.)

T2 sequence (P49336 whole entry): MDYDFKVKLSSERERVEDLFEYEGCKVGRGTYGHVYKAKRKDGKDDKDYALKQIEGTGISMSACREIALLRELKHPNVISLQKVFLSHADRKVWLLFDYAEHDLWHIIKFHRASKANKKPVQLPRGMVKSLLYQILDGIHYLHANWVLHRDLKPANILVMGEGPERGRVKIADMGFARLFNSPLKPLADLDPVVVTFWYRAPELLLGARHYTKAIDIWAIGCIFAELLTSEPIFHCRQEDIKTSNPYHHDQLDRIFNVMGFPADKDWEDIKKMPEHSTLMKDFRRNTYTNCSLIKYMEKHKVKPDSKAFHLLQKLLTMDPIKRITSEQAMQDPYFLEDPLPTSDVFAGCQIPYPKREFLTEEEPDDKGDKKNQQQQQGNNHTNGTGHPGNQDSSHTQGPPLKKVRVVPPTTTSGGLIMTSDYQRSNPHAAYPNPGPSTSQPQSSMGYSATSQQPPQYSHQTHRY
T2 sequence (P24863 whole entry partner): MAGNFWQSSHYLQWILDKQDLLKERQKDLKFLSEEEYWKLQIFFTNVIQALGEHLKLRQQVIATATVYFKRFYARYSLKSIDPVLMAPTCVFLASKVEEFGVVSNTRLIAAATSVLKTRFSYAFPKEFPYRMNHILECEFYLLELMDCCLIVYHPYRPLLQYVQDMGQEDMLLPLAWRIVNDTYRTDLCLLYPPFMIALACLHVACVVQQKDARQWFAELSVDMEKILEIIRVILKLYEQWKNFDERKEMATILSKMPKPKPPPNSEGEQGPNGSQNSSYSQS
T1 sequence (Q9BWU1 whole entry): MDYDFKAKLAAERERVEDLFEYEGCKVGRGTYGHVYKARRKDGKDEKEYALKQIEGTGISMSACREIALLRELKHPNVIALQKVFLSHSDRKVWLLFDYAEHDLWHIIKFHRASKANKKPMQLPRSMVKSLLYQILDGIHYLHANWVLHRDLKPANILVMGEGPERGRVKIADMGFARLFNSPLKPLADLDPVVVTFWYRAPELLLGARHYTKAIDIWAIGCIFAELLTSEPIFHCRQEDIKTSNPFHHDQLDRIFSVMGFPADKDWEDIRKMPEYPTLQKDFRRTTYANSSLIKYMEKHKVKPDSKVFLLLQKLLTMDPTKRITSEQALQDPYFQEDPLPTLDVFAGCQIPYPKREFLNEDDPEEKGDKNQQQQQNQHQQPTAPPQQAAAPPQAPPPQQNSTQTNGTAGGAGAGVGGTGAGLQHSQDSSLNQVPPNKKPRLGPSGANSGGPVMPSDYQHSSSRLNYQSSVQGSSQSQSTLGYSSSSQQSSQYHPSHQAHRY
T1 sequence (P24863 whole entry partner): as the sequence (P24863 whole entry partner) above

As for `Cn1cc(-c2ccncc2/C=C/C(=O)Nc2ccc(CN3CCC4(CC3)COC4)cc2)cn1` [Example 84, (2E)-3-(4-(1-methyl-1H-pyrazol-4-yl)pyridin-3-yl)-N-(4-(2-oxa-7-azaspiro[3.5]non-7-ylmethyl)phenyl)acrylamide], the inhibition (commonly the relative decrease from the control value, in per cent) at 1 µM came out at 60% in assay [1], 97% at CDK19 (CDC2L6/CycC) and 97% at CDK8/CycC.
Turning to `Cn1cc(-c2ccncc2/C=C/C(=O)Nc2ccc(CNC3CC(F)(F)C3)cc2)cn1` [Example 89, (2E)-N-(4-(((3,3-difluorocyclobutyl)amino)methyl)phenyl)-3-(4-(1-methyl-1H-pyrazol-4-yl)pyridin-3-yl)acrylamide], the inhibition at 1 µM in assay [1] came to 63%; on CDK19 (CDC2L6/CycC) it was 97%; at CDK8/CycC it was 96%.
In the case of `Cn1cc(-c2ccncc2/C=C/C(=O)Nc2ccc(CCN3CCOCC3)cc2)cn1` [Example 91, (2E)-3-(4-(1-Methyl-1H-pyrazol-4-yl)pyridin-3-yl)-N-(4-(2-(morpholin-4-yl)ethyl)phenyl)acrylamide], the inhibition at 1 µM in assay [1] worked out at 59%; at CDK19 (CDC2L6/CycC), 101%; at CDK8/CycC it was 96%.
In the case of `CCn1cc(-c2ccncc2/C=C/C(=O)Nc2ccc(CN3CCOCC3)cc2)cn1` [Example 92, (2E)-3-(4-(1-Ethyl-1H-pyrazol-4-yl)pyridin-3-yl)-N-(4-(morpholin-4-ylmethyl)phenyl)acrylamide], the inhibition at 1 µM in assay [1] was found to be 63%; on CDK19 (CDC2L6/CycC), 100%; at CDK8/CycC, 96%.
The corresponding values for `O=C(/C=C/c1cnccc1-c1cnn(Cc2ccccc2)c1)Nc1ccc(CN2CCOCC2)cc1` [Example 93, (2E)-3-(4-(1-benzyl-1H-pyrazol-4-yl)pyridin-3-yl)-N-(4-(morpholin-4-ylmethyl)phenyl)acrylamide] are 63%, 101% and 101%.
`O=C(/C=C/c1cnccc1-c1cnn(C(F)F)c1)Nc1ccc(CN2CCOCC2)cc1` [Example 98, (2E)-3-(4-(1-(Difluoromethyl)-1H-pyrazol-4-yl)pyridin-3-yl)-N-(4-(morpholin-4-ylmethyl)phenyl)acrylamide]: the inhibition at 1 µM in assay [1] was 53%; at CDK19 (CDC2L6/CycC), 100%; at CDK8/CycC, 98%.
`CCn1cc(-c2ccncc2CCC(=O)Nc2ccc(CN3CCOCC3)cc2)cn1` [Example 99, 3-(4-(1-Ethyl-1H-pyrazol-4-yl)pyridin-3-yl)-N-(4-(morpholin-4-ylmethyl)phenyl)propanamide]: the inhibition at 1 µM in assay [1] was 62%; on CDK19 (CDC2L6/CycC), 85%; at CDK8/CycC, 90%.
On to `COc1ccsc1-c1ccncc1/C=C/C(=O)Nc1ccc(CN2CCOCC2)cc1` [Example 100, (2E)-3-(4-(3-methoxy-2-thienyl)pyridin-3-yl)-N-(4-(morpholin-4-ylmethyl)phenyl)acrylamide], for which the inhibition at 1 µM in assay [1] was 52%; on CDK19 (CDC2L6/CycC) it was 100%; at CDK8/CycC, 97%.
As for `O=C(/C=C/c1cnccc1-c1cnn2ccccc12)Nc1ccc(CN2CCOCC2)cc1` [Example 101, (2E)-N-(4-(morpholin-4-ylmethyl)phenyl)-3-(4-(pyrazolo[1,5-a]pyridin-3-yl)pyridin-3-yl)acrylamide], the results for the inhibition at 1 µM (in assay [1]; at CDK19 (CDC2L6/CycC); on CDK8/CycC) were 55%, 97% and 98%, respectively.
For the molecule `O=C(/C=C/c1cnccc1-c1cnn(CC2CC2)c1)Nc1ccc(CCN2CCOCC2)cc1` [Example 108, (2E)-3-(4-(1-(cyclopropylmethyl)-1H-pyrazol-4-yl)pyridin-3-yl)-N-(4-(2-(morpholin-4-yl)ethyl)phenyl)acrylamide], the values for the inhibition at 1 µM (in assay [1]; at CDK19 (CDC2L6/CycC); on CDK8/CycC) were 58%, 97% and 94%, respectively.
Regarding `Cc1cc(NC(=O)/C=C/c2cnccc2-c2cnn(C)c2)ccc1CN1CCOCC1` [Example 109, (2E)-N-(3-Methyl-4-(morpholin-4-ylmethyl)phenyl)-3-(4-(1-methyl-1H-pyrazol-4-yl)pyridin-3-yl)acrylamide], the inhibition at 1 µM came to 58% in assay [1], 98% on CDK19 (CDC2L6/CycC) and 96% at CDK8/CycC.
`Cn1cc(-c2ccncc2/C=C/C(=O)Nc2ccc3c(c2)OCC3)cn1` [Example 116, (2E)-N-(2,3-dihydro-1-benzofuran-6-yl)-3-(4-(1-methyl-1H-pyrazol-4-yl)pyridin-3-yl)acrylamide]: the inhibition at 1 µM in assay [1] worked out at 55%; at CDK19 (CDC2L6/CycC) it was 94%; at CDK8/CycC, 100%.
As for `Cn1cc(-c2ccncc2/C=C/C(=O)Nc2ccc(CC(C)(C)O)cc2)cn1` [Example 123, (2E)-N-(4-(2-hydroxy-2-methylpropyl)phenyl)-3-(4-(1-methyl-1H-pyrazol-4-yl)pyridin-3-yl)acrylamide], the inhibition at 1 µM in assay [1] stood at 62%; at CDK19 (CDC2L6/CycC), 101%; on CDK8/CycC, 99%.
On to `Cn1cc(-c2ccncc2/C=C/C(=O)Nc2ccc(CCC(F)(F)F)cc2)cn1` [Example 124, (2E)-3-(4-(1-methyl-1H-pyrazol-4-yl)pyridin-3-yl)-N-(4-(3,3,3-trifluoropropyl)phenyl)acrylamide], for which the inhibition at 1 µM was determined as 53% in assay [1], 99% at CDK19 (CDC2L6/CycC) and 98% at CDK8/CycC.
For `Cn1cc(-c2ccncc2/C=C/C(=O)Nc2ccc(Oc3ccncc3)cc2)cn1` [Example 137, (2E)-3-(4-(1-methyl-1H-pyrazol-4-yl)pyridin-3-yl)-N-(4-(pyridin-4-yloxy)phenyl)acrylamide] the same measures were 54%, 96% and 95%.
For `Cc1cc(NC(=O)/C=C/c2cnccc2-c2cnn(C3CC3)c2)ccc1CN1CCOCC1` [Example 142, (2E)-3-(4-(1-cyclopropyl-1H-pyrazol-4-yl)pyridin-3-yl)-N-(3-methyl-4-(morpholin-4-ylmethyl)phenyl)acryalmide], the inhibition at 1 µM came out at 62% in assay [1], 99% on CDK19 (CDC2L6/CycC) and 98% at CDK8/CycC.
On to `CC(C)(O)Cc1ccc(NC(=O)/C=C/c2cnccc2-c2cnn(C3CC3)c2)cc1` [Example 143, (2E)-3-(4-(1-cyclopropyl-1H-pyrazol-4-yl)pyridin-3-yl)-N-(4-(2-hydroxy-2-methylpropyl)phenyl)acrylamide], for which the inhibition at 1 µM in assay [1] was 61%; at CDK19 (CDC2L6/CycC) it was 103%; on CDK8/CycC, 100%.
For `O=C(/C=C/c1cnccc1-c1cnsc1)Nc1ccc(CN2CCOCC2)cc1` [Example 145, (2E)-N-(4-(Morpholin-4-ylmethyl)phenyl)-3-(4-(1,2-thiazol-4-yl)pyridin-3-yl)acrylamide], the inhibition at 1 µM was 51% in assay [1], 94% at CDK19 (CDC2L6/CycC) and 90% at CDK8/CycC.
For `Cn1cc(-c2ccncc2/C=C/C(=O)Nc2ccc(CN3CCOCC3)c(O)c2)cn1` [Example 148, (2E)-N-(3-Hydroxy-4-(morpholin-4-ylmethyl)phenyl)-3-(4-(1-methyl-1H-pyrazol-4-yl)pyridin-3-yl)acrylamide] the same measures were 54%, 99% and 97%.
`Cn1cc(-c2ccncc2/C=C/C(=O)Nc2ccc(CN3CCOCC3)c(C#N)c2)cn1` [Example 150, (2E)-N-(3-Cyano-4-(morpholin-4-ylmethyl)phenyl)-3-(4-(1-methyl-1H-pyrazol-4-yl)pyridin-3-yl)acrylamide]: the inhibition at 1 µM in assay [1] worked out at 54%; on CDK19 (CDC2L6/CycC) it was 99%; on CDK8/CycC it was 100%.
In the case of `Cc1ncc(-c2ccncc2/C=C/C(=O)Nc2ccc(CN3CCOCC3)cc2)s1` [Example 151, (2E)-3-(4-(2-methyl-1,3-thiazol-5-yl)pyridin-3-yl)-N-(4-(morpholin-4-ylmethyl)phenyl)acrylamide], the inhibition at 1 µM in assay [1] was found to be 54%; on CDK19 (CDC2L6/CycC), 95%; at CDK8/CycC it was 95%.
As to `Cn1cc(-c2ccncc2/C=C/C(=O)Nc2ccc3cnccc3c2)cn1` [Example 154, (2E)-N-(isoquinolin-6-yl)-3-(4-(1-methyl-1H-pyrazol-4-yl)pyridin-3-yl)acrylamide], the inhibition at 1 µM was 62% in assay [1], 99% on CDK19 (CDC2L6/CycC) and 96% at CDK8/CycC.

Source of the values: patent publication US9957251B2 (Takeda Pharmaceutical Company Limited, priority 2014, dated 2018).
